Measurements reported in patent publication US20230085307A1, “PYRIDAZINONE COMPOUND AND HERBICIDE” (NISSAN CHEMICAL CORPORATION, priority 2019, published 2023).

What was measured:
late watergrass = experiment: Test Example 1: herbicidal activity, application before weed generation under submerged conditions (Table 16, symbol A); assay type: in vivo, late watergrass (Echinochloa oryzicola); conditions: amount of applied herbicide 320 g/ha
Method in brief: (§1)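 Submerged Wagner pots (alluvial soil, 4 cm water) sown with weed seeds and planted with 2.5-leaf rice seedlings; emulsifiable concentrate diluted in water applied to water surface on sowing day. Held in greenhouse at 25-30 °C; injury scored 0-5 by herbicidal rate after three weeks.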

Japanese bulrush = experiment: Test Example 1: herbicidal activity, application before weed generation under submerged conditions (Table 16, symbol B); assay type: in vivo, Japanese bulrush (Schoenoplectus juncoides); conditions: amount of applied herbicide 320 g/ha
Method in brief: as §1

oval-leafed pondweed = experiment: Test Example 1: herbicidal activity, application before weed generation under submerged conditions (Table 16, symbol C); assay type: in vivo, oval-leafed pondweed (Monochoria vaginalis); conditions: amount of applied herbicide 320 g/ha
Method in brief: as §1

barnyard grass [1] = experiment: Test Example 3: herbicidal effect by foliage application, Wagner pot (Table 18, symbol H); assay type: in vivo, barnyard grass (Echinochloa crus-galli); conditions: 320 g/ha
Method in brief: (§2)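 Plants were sown in alluvial soil held under 0.1–0.5 cm standing water and grown 14 days in a greenhouse at 25–30 °C. An emulsifiable formulation, water-diluted to the set dose, was then sprayed onto the foliage, and effects were scored three weeks later using previously defined criteria.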

Chinese sprangletop = experiment: Test Example 3: herbicidal effect by foliage application, Wagner pot (Table 18, symbol D); assay type: in vivo, chinese sprangletop (Leptochloa chinensis); conditions: 320 g/ha
Method in brief: as §2

rice flat sedge = experiment: Test Example 3: herbicidal effect by foliage application, Wagner pot (Table 18, symbol E); assay type: in vivo, rice flat sedge (Cyperus iria); conditions: 320 g/ha
Method in brief: as §2

southern crabgrass [2] = experiment: Test Example 4: herbicidal effect by soil treatment (Table 19, symbol F); assay type: in vivo, southern crabgrass (Digitaria ciliaris); conditions: amount of applied herbicide 320 g/ha
Method in brief: (§3)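 Scoring uses the grading scale of an earlier test, three weeks post-application. Treatment consists of spraying a diluted emulsion formulation across the surface of sterilized diluvial soil in which seeds are buried near 1.5 cm deep; boxes are kept in a greenhouse between 25° C. and 30° C.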

green foxtail [3] = experiment: Test Example 4: herbicidal effect by soil treatment (Table 19, symbol G); assay type: in vivo, green foxtail (Setaria viridis); conditions: amount of applied herbicide 320 g/ha
Method in brief: as §3

barnyard grass [4] = experiment: Test Example 4: herbicidal effect by soil treatment (Table 19, symbol H); assay type: in vivo, barnyard grass (Echinochloa crus-galli); conditions: amount of applied herbicide 320 g/ha
Method in brief: as §3

wild oat [5] = experiment: Test Example 4: herbicidal effect by soil treatment (Table 19, symbol I); assay type: in vivo, wild oat (Avena fatua); conditions: amount of applied herbicide 320 g/ha
Method in brief: as §3

blackgrass [6] = experiment: Test Example 4: herbicidal effect by soil treatment (Table 19, symbol J); assay type: in vivo, blackgrass (Alopecurus myosuroides); conditions: amount of applied herbicide 320 g/ha
Method in brief: as §3

Italian ryegrass [7] = experiment: Test Example 4: herbicidal effect by soil treatment (Table 19, symbol K); assay type: in vivo, Italian ryegrass (Lolium multiflorum); conditions: amount of applied herbicide 320 g/ha
Method in brief: as §3

windgrass [8] = experiment: Test Example 4: herbicidal effect by soil treatment (Table 19, symbol L); assay type: in vivo, windgrass (Apera spica-venti); conditions: amount of applied herbicide 320 g/ha
Method in brief: as §3

velvetleaf [9] = experiment: Test Example 4: herbicidal effect by soil treatment (Table 19, symbol M); assay type: in vivo, velvetleaf (Abutilon theophrasti); conditions: amount of applied herbicide 320 g/ha
Method in brief: as §3

redroot pigweed [10] = experiment: Test Example 4: herbicidal effect by soil treatment (Table 19, symbol N); assay type: in vivo, redroot pigweed (Amaranthus retroflexus); conditions: amount of applied herbicide 320 g/ha
Method in brief: as §3

lambsquarters [11] = experiment: Test Example 4: herbicidal effect by soil treatment (Table 19, symbol O); assay type: in vivo, lambsquarters (Chenopodium album); conditions: amount of applied herbicide 320 g/ha
Method in brief: as §3

chickweed [12] = experiment: Test Example 4: herbicidal effect by soil treatment (Table 19, symbol P); assay type: in vivo, common chickweed (Stellaria media); conditions: amount of applied herbicide 320 g/ha
Method in brief: as §3

false cleavers = experiment: Test Example 4: herbicidal effect by soil treatment (Table 19, symbol Q); assay type: in vivo, false cleavers (Galium spurium); conditions: amount of applied herbicide 320 g/ha
Method in brief: as §3

persian speedwell [13] = experiment: Test Example 4: herbicidal effect by soil treatment (Table 19, symbol R); assay type: in vivo, Persian speedwell (Veronica persica); conditions: amount of applied herbicide 320 g/ha
Method in brief: as §3

southern crabgrass [14] = experiment: Test Example 5: herbicidal effect by foliage application, plastic box (Table 20, symbol F); assay type: in vivo, southern crabgrass (Digitaria ciliaris); conditions: amount of applied herbicide 320 g/ha; foliage application after 14-day growth; evaluated three weeks after application
Method in brief: (§4)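 Post-emergence foliar test in sterilized diluvial soil. Compound applied as water-diluted emulsion at a predetermined rate to 14-day-old plants; evaluation at three weeks.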

green foxtail [15] = experiment: Test Example 5: herbicidal effect by foliage application, plastic box (Table 20, symbol G); assay type: in vivo, green foxtail (Setaria viridis); conditions: amount of applied herbicide 320 g/ha; foliage application after 14-day growth; evaluated three weeks after application
Method in brief: as §4

barnyard grass [16] = experiment: Test Example 5: herbicidal effect by foliage application, plastic box (Table 20, symbol H); assay type: in vivo, barnyard grass (Echinochloa crus-galli); conditions: amount of applied herbicide 320 g/ha; foliage application after 14-day growth; evaluated three weeks after application
Method in brief: as §4

wild oat [17] = experiment: Test Example 5: herbicidal effect by foliage application, plastic box (Table 20, symbol I); assay type: in vivo, wild oat (Avena fatua); conditions: amount of applied herbicide 320 g/ha; foliage application after 14-day growth; evaluated three weeks after application
Method in brief: as §4

blackgrass [18] = experiment: Test Example 5: herbicidal effect by foliage application, plastic box (Table 20, symbol J); assay type: in vivo, blackgrass (Alopecurus myosuroides); conditions: amount of applied herbicide 320 g/ha; foliage application after 14-day growth; evaluated three weeks after application
Method in brief: as §4

Italian ryegrass [19] = experiment: Test Example 5: herbicidal effect by foliage application, plastic box (Table 20, symbol K); assay type: in vivo, Italian ryegrass (Lolium multiflorum); conditions: amount of applied herbicide 320 g/ha; foliage application after 14-day growth; evaluated three weeks after application
Method in brief: as §4

windgrass [20] = experiment: Test Example 5: herbicidal effect by foliage application, plastic box (Table 20, symbol L); assay type: in vivo, windgrass (Apera spica-venti); conditions: amount of applied herbicide 320 g/ha; foliage application after 14-day growth; evaluated three weeks after application
Method in brief: as §4

velvetleaf [21] = experiment: Test Example 5: herbicidal effect by foliage application, plastic box (Table 20, symbol M); assay type: in vivo, velvetleaf (Abutilon theophrasti); conditions: amount of applied herbicide 320 g/ha; foliage application after 14-day growth; evaluated three weeks after application
Method in brief: as §4

redroot pigweed [22] = experiment: Test Example 5: herbicidal effect by foliage application, plastic box (Table 20, symbol N); assay type: in vivo, redroot pigweed (Amaranthus retroflexus); conditions: amount of applied herbicide 320 g/ha; foliage application after 14-day growth; evaluated three weeks after application
Method in brief: as §4

lambsquarters [23] = experiment: Test Example 5: herbicidal effect by foliage application, plastic box (Table 20, symbol O); assay type: in vivo, lambsquarters (Chenopodium album); conditions: amount of applied herbicide 320 g/ha; foliage application after 14-day growth; evaluated three weeks after application
Method in brief: as §4

chickweed [24] = experiment: Test Example 5: herbicidal effect by foliage application, plastic box (Table 20, symbol P); assay type: in vivo, common chickweed (Stellaria media); conditions: amount of applied herbicide 320 g/ha; foliage application after 14-day growth; evaluated three weeks after application
Method in brief: as §4

persian speedwell [25] = experiment: Test Example 5: herbicidal effect by foliage application, plastic box (Table 20, symbol R); assay type: in vivo, Persian speedwell (Veronica persica); conditions: amount of applied herbicide 320 g/ha; foliage application after 14-day growth; evaluated three weeks after application
Method in brief: as §4

Compound: CCCC(=O)Oc1c(C)nn(C)c(=O)c1-c1c(-c2ccc(F)cc2OC)sc2cc(F)c(F)cc12 [5-030]
- Herbicidal effect, A: late watergrass (late watergrass): 3 (Herbicidal rate of 40% or more and less than 70%)
- Herbicidal effect, B: Japanese bulrush (Japanese bulrush): 1 (Herbicidal rate of 5% or more and less than 20%)
- Herbicidal effect, C: oval-leafed pondweed (oval-leafed pondweed): 0 (Herbicidal rate of 5% or less (almost no effect))
- herbicidal effect on barnyard grass (H) (barnyard grass [1]): 4 (Herbicidal rate of 70% or more and less than 90%)
- herbicidal effect on Chinese sprangletop (D) (Chinese sprangletop): 0 (Herbicidal rate of 5% or less (almost no effect))
- herbicidal effect on rice flat sedge (E) (rice flat sedge): 0 (Herbicidal rate of 5% or less (almost no effect))
- F: southern crabgrass, herbicidal effect grade (southern crabgrass [2]): 1 (Herbicidal rate of 5% or more and less than 20%)
- G: green foxtail, herbicidal effect grade (green foxtail [3]): 4 (Herbicidal rate of 70% or more and less than 90%)
- H: barnyard grass, herbicidal effect grade (barnyard grass [4]): 2 (Herbicidal rate of 20% or more and less than 40%)
- I: wild oat, herbicidal effect grade (wild oat [5]): 0 (Herbicidal rate of 5% or less (almost no effect))
- J: blackgrass, herbicidal effect grade (blackgrass [6]): 5 (Herbicidal rate of 90% or more (almost completely withered))
- K: Italian ryegrass, herbicidal effect grade (Italian ryegrass [7]): 0 (Herbicidal rate of 5% or less (almost no effect))
- L: windgrass, herbicidal effect grade (windgrass [8]): 5 (Herbicidal rate of 90% or more (almost completely withered))
- M: velvetleaf, herbicidal effect grade (velvetleaf [9]): 3 (Herbicidal rate of 40% or more and less than 70%)
- N: redroot pigweed, herbicidal effect grade (redroot pigweed [10]): 5 (Herbicidal rate of 90% or more (almost completely withered))
- O: lambsquarters, herbicidal effect grade (lambsquarters [11]): 5 (Herbicidal rate of 90% or more (almost completely withered))
- P: chickweed, herbicidal effect grade (chickweed [12]): 5 (Herbicidal rate of 90% or more (almost completely withered))
- Q: false cleavers, herbicidal effect grade (false cleavers): 0 (Herbicidal rate of 5% or less (almost no effect))
- R: persian speedwell, herbicidal effect grade (persian speedwell [13]): 5 (Herbicidal rate of 90% or more (almost completely withered))
- Herbicidal effect by foliage application, F: southern crabgrass (southern crabgrass [14]): 0 (Herbicidal rate of 5% or less (almost no effect))
- Herbicidal effect by foliage application, G: green foxtail (green foxtail [15]): 0 (Herbicidal rate of 5% or less (almost no effect))
- Herbicidal effect by foliage application, H: barnyard grass (barnyard grass [16]): 2 (Herbicidal rate of 20% or more and less than 40%)
- Herbicidal effect by foliage application, I: wild oat (wild oat [17]): 0 (Herbicidal rate of 5% or less (almost no effect))
- Herbicidal effect by foliage application, J: blackgrass (blackgrass [18]): 4 (Herbicidal rate of 70% or more and less than 90%)
- Herbicidal effect by foliage application, K: Italian ryegrass (Italian ryegrass [19]): 0 (Herbicidal rate of 5% or less (almost no effect))
- Herbicidal effect by foliage application, L: windgrass (windgrass [20]): 5 (Herbicidal rate of 90% or more (almost completely withered))
- Herbicidal effect by foliage application, M: velvetleaf (velvetleaf [21]): 3 (Herbicidal rate of 40% or more and less than 70%)
- Herbicidal effect by foliage application, N: redroot pigweed (redroot pigweed [22]): 3 (Herbicidal rate of 40% or more and less than 70%)
- Herbicidal effect by foliage application, O: lambsquarters (lambsquarters [23]): 3 (Herbicidal rate of 40% or more and less than 70%)
- Herbicidal effect by foliage application, P: chickweed (chickweed [24]): 5 (Herbicidal rate of 90% or more (almost completely withered))
- Herbicidal effect by foliage application, R: persian speedwell (persian speedwell [25]): 0 (Herbicidal rate of 5% or less (almost no effect))
